According to patent publication US9930887B2, “Compound for increasing amino acid content in plant, and use thereof” (Okayama Prefecture, priority 2011, dated 2018):
Read-outs that look alike come from different tables or passages of the source.

Key:
Arabidopsis [1] = format: in vivo, Arabidopsis thaliana
Japanese mustard spinach = conditions: 28 days
Protocol: (§1) As a cultivation temperature, two types of a low temperature condition LT (Low Temperature: light period 20° C./dark period 15° C.) and a high temperature condition HT (High Temperature: light period 25° C./dark period 20° C.) were set. […] Specifically, a single individual was put into each pot having about […], and 25 mL of each solution was provided to roots of each pot once a week. In the same way as Example 1, a leaf (or a terrestrial part) was measured as a sample in a cation mode and an anion mode of CE-TOFMS (capillary electrophoresis-time-of-flight mass spectrometry: Agilent CE-TOFMS system (Agilent technologies)). By comparing a detected peak with database on the basis of m/Z and a migration period, an amino acid was searched, identified, and quantified.

Arabidopsis [2] = format: in vivo, Arabidopsis thaliana; conditions: 1 mM GSSG, 2 mM GSH or 3 mM NH4NO3, 25 mL per pot to roots once a week
garland chrysanthemum = experiment: Free amino acid content in garland chrysanthemum at various glutathione concentrations; format: in vivo, Chrysanthemum coronarium; conditions: 28 days
Protocol: An effect on amino acid contents of garland chrysanthemum which was vegetable of the composite family (Compositae), to which garland chrysanthemum glutathione having various concentrations was supplied, was examined. After garland chrysanthemum was seeded, sprouts germinated similarly were selected, were cultivated in an incubator (light period: 14 hours, 20° C./dark period: 10 hours, 15° C., light intensity: about 250 μE/m^2/s), and were sampled after 28 days. As a medium, a soil formed by placing vermiculite (Asahi industrial corporation) as a lower layer, KUREHA seedling raising soil (KUREHA CORPORATION) as a middle layer, and vermiculite (Asahi industrial corporation) as an upper layer at a ratio of 2:1:1 in lamination was used.
In this experiment, only water (Cont.), 0.1 mM, 0.2 mM, 0.5 mM, 1 mM, 2 mM, and 5 mM of oxidized glutathione (GSSG) solutions were provided to plants.

spinach = experiment: Free amino acid content in spinach under cultivation temperature control; format: in vivo, Spinacia oleracea; conditions: 28 days
Protocol: as §1, with “A cultivation condition of spinach, which was a vegetable of the goosefoot family (Chenopodioideae), supplied with glutathione was examined. After spinach was seeded, sprouts germinated to a similar extent were selected, were cultivated in an incubator (light period: 14 hours/dark period: 10 hours, light intensity: about 250 μE/m^2/s), and were sampled after 28 days. As” for “As”

[3] = low temperature condition (light 20° C./dark 15° C.), 2 mM GSH
[4] = high temperature condition (light 25° C./dark 20° C.), 1 mM GSSG

Compound: N[C@@H](CCC(=O)N[C@@H](CS)C(=O)NCC(=O)O)C(=O)O [GSH, reduced glutathione]
- asparagine content in a leaf (Arabidopsis [1]; effect larger in leaf before photoirradiation (L0), 1 mM GSSG, 2 mM GSH, 3 mM NH4NO3): largely increased
- serine content in a leaf (Arabidopsis [1]; treatment combined with photoirradiation for 8 hours (L8, 100 μE/m^2/s), 1 mM GSSG, 2 mM GSH, 3 mM NH4NO3): remarkably increased
- GABA content relative to control (Japanese mustard spinach; [3]): ≥ 2 times
- arginine content relative to control (Japanese mustard spinach; [3]): ≥ 2 times
- asparagine content relative to control (Japanese mustard spinach; [3]): ≥ 2 times
- aspartic acid content relative to control (Japanese mustard spinach; [3]): ≥ 2 times
- glutamine content relative to control (Japanese mustard spinach; [3]): ≥ 2 times
- isoleucine content relative to control (Japanese mustard spinach; [3]): ≥ 2 times
- threonine content relative to control (Japanese mustard spinach; [3]): ≥ 2 times
- total free amino acid content relative to control condition (only water) (Arabidopsis [2]; plants after 4 weeks from seeding): about 2.9 times
- total free amino acid content relative to control condition (only water) (Arabidopsis [2]; plants after 5 weeks from seeding): about 2.4 times

Compound: oxidized glutathione [GSSG]
- asparagine content, ratio to control = 1 (garland chrysanthemum; 5 mM of GSSG): ≥ 100 times
- glutamine content, ratio to control = 1 (garland chrysanthemum; 5 mM of GSSG): ≥ 100 times
- glycine content, ratio to control = 1 (garland chrysanthemum; 5 mM of GSSG): ≥ 100 times
- histidine content, ratio to control = 1 (garland chrysanthemum; 5 mM of GSSG): ≥ 100 times
- homoserine content, ratio to control = 1 (garland chrysanthemum; 5 mM of GSSG): ≥ 100 times
- total free amino acid content, ratio to control = 1 (garland chrysanthemum; 5 mM of GSSG): 24.8 times
- total free amino acid content compared with control (garland chrysanthemum; GSSG 0.1 mM, 25 mL per pot once a week): decreased
- free amino acid contents compared with total free amino acid content under control condition (garland chrysanthemum; GSSG 0.2 mM to 5 mM, 25 mL per pot once a week): increased concentration-dependently
- asparagine content in a leaf (Arabidopsis [1]; in vivo): largely increased
- serine content in a leaf (Arabidopsis [1]; in vivo): remarkably increased
- glycine content relative to control (spinach; [4]): ≥ 5 times
- homoserine content relative to control (spinach; [4]): ≥ 5 times
- phenylalanine content relative to control (spinach; [4]): ≥ 5 times
- tyrosine content relative to control (spinach; [4]): ≥ 5 times

Compound: N[C@@H](CCC(=O)N[C@@H](CS)C(=O)NCC(=O)O)C(=O)O [glutathione]
- effect of increase in amino acid content relative to control = 1 (FIG. 10) (Japanese mustard spinach; high temperature condition (light 25° C./dark 20° C.), β-alanine, asparagine, glutamine): observed in part of amino acids
- effect on amino acid contents relative to control = 1 (FIG. 8) (spinach; low temperature condition (light 20° C./dark 15° C.), observed in part of amino acids): small
